In patent US8461107B2 (Merck Sharp & Dohme Corp., priority 2008, dated 2013):

Molecular target: T1, HCV genotype 1b (BK) NS3 modified with a R155K mutation (Hepatitis C virus genotype 1b, UniProt P26663, R1181K)
T1 construct: HCV genotype 1b (BK) NS3 modified with a R155K mutation
Test: HCV NS3 protease time-resolved fluorescence (TRF) assay, NS3 protease 1b R155K Ki activity
Type: biochemical
Conditions: HCV genotype 1b (BK) NS3 with R155K mutation; TRF peptide substrate 100 nM; Ki derived from IC50
Protocol: The HCV NS3 protease inhibitory activity of the present compounds may be tested using assays known in the art. One such assay is HCV NS3 protease time-resolved fluorescence (TRF) assay as described below and in International Patent Application Publication WO 2006/102087. Other examples of such assays are described in e.g., International Patent Application Publication WO 2005/046712.
A NS3 protease assay can be performed, for example, in a final volume of 100 μl assay buffer containing 50 mM HEPES, pH 7.5, 150 mM NaCl, 15% glycerol, 0.15% TRITON X-100, 10 mM DTT, and 0.1% PEG 8000. NS3 and NS4A protease is pre-incubated with various concentrations of inhibitors in DMSO for 30 minutes. The reaction is initiated by adding the TRF peptide substrate (final concentration 100 nM). NS3 mediated hydrolysis of the substrate is quenched after 1 hour at room temperature with 100 μl of 500 mM MES, pH 5.5. Product fluorescence is detected using either a VICTOR V2 or FUSION fluorophotometer (Perkin Elmer Life and Analytical Sciences) with excitation at 340 nm and emission at 615 nm with a 400 μs delay. Testing concentrations of different enzyme forms are selected to result in a signal to background ratio (S/B) of 10-30. IC50 values are derived using a standard four-parameter fit to the data. Ki values are derived from IC50 values using the following formula, IC50=Ki(1+[S]/KM), Eqn (1), where [S] is the concentration of substrate peptide in the reaction and KM is the Michaelis constant. See P. Gallinari et al., 38 BIOCHEM. 5620-32 (1999); P. Gallinari et al., 72 J. VIROL. 6758-69 (1998); M. Taliani et al., 240 ANAL. BIOCHEM. 60-67 (1996).
The HCV NS3 protease inhibitory activity was measured using the protease time-resolved fluorescence (TRF) assay as described below and in International Patent Application Publication WO 2006/102087. The assay was performed with HCV genotype 1b (BK) NS3 modified with a R155K mutation.
The assay was performed in a final volume of 100 μl in assay buffer containing 50 mM HEPES, pH 7.5, 150 mM NaCl, 15% glycerol, 0.15% TRITON X-100, 10 mM DTT, and 0.1% PEG 8000. NS3 and NS4A protease is pre-incubated with various concentrations of inhibitors in DMSO for 30 minutes. The reaction is initiated by adding the TRF peptide substrate (final concentration 100 nM). NS3 mediated hydrolysis of the substrate is quenched after 1 hour at room temperature with 100 μl of 500 mM MES, pH 5.5. Product fluorescence is detected using either a VICTOR V2 or FUSION fluorophotometer (Perkin Elmer Life and Analytical Sciences) with excitation at 340 nm and emission at 615 nm with a 400 μs delay. Testing concentrations of the enzyme containing the R155K mutation were selected to result in a signal to background ratio (S/B) of 10-30. IC50 values are derived using a standard four-parameter fit to the data. Ki values are derived from IC50 values using the following formula, IC50=Ki(1+[S]/KM), Eqn (1), where [S] is the concentration of substrate peptide in the reaction and KM is the Michaelis constant. See P. Gallinari et al., 38 BIOCHEM. 5620-32 (1999); P. Gallinari et al., 72 J. VIROL. 6758-69 (1998); M. Taliani et al., 240 ANAL. BIOCHEM. 60-67 (1996).

Q: For C=C[C@@H]1C[C@]1(NC(=O)[C@@H]1C[C@@H]2CN1C(=O)[C@H](C1CCCC1)NC(=O)O[C@@H]1CCC[C@H]1C/C=C/Cn1c(cc3ccccc3c1=O)O2)C(=O)NS(=O)(=O)C1CC1, which Ki is on record?
A: The Ki was 0.1 to 0.5 nM.

Q: How did the Ki turn out when C=C[C@@H]1C[C@]1(NC(=O)[C@@H]1C[C@@H]2CN1C(=O)[C@H](C1CCCC1)NC(=O)O[C@@H]1CCC[C@H]1CC1CC1CCn1c(cc3cc(Cl)ccc3c1=O)O2)C(=O)NS(=O)(=O)C1CC1 (some centres unmarked) was run?
A: Its Ki is 0.1 to 0.5 nM.

Q: Which Ki does the source give for C=C[C@@H]1C[C@]1(NC(=O)[C@@H]1C[C@@H]2CN1C(=O)[C@H](C1CCCC1)NC(=O)O[C@@H]1CCC[C@H]1CCCC1CC1Cn1c(cc3ccccc3c1=O)O2)C(=O)NS(=O)(=O)C1CC1 (some centres unmarked) here?
A: Its Ki is 0.5 to 1 nM.

Q: CC[C@@H]1C[C@]1(NC(=O)[C@@H]1C[C@@H]2CN1C(=O)[C@H](C1CCCC1)NC(=O)O[C@@H]1CCC[C@H]1CC/C=C/Cn1c(nc3cc(C)ccc3c1=O)O2)C(=O)NS(=O)(=O)C1CC1 [(1R,14E,18S,22R,26S,29S)-26-cyclopentyl-N-((1R,2R)-1-{[(cyclopropylsulfonyl)amino]carbonyl}-2-ethylcyclopropyl)-7-methyl-11,24,27-trioxo-2,23-dioxa-4,12,25,28-tetraazapentacyclo[26.2.1.0^3,12.0^5,10.0^18,22]hentriaconta-3,5,7,9,14-pentaene-29-carboxamide] was tested. Which Ki did it give?
A: Its Ki is 0.1 to 0.5 nM.

Q: Which Ki does the source give for C=C[C@@H]1C[C@]1(NC(=O)[C@@H]1C[C@@H]2CN1C(=O)[C@H](C1CCCC1)NC(=O)O[C@@H]1CCC[C@H]1CCCCCn1c(ccc(Br)c1=O)O2)C(=O)NS(=O)(=O)C1CC1 [(1R,14R,18R,22S,25S)-6-bromo-22-cyclopentyl-N-((1R,2S)-1-{[(cyclopropylsulfonyl)amino]carbonyl}-2-vinylcyclopropyl)-7,20,23-trioxo-2,19-dioxa-8,21,24-triazatetracyclo[22.2.1.0^3,8.0^14,18]heptacosa-3,5-diene-25-carboxamide] here?
A: Its Ki is 0.1 to 0.5 nM.

Q: For C=C[C@@H]1C[C@]1(NC(=O)[C@@H]1C[C@@H]2CN1C(=O)[C@H](C1CCCC1)NC(=O)O[C@@H]1CCC[C@H]1CCCCCn1c(cccc1=O)O2)C(=O)NS(=O)(=O)C1CC1 [(1R,14R,18R,22S,25S)-22-cyclopentyl-N-((1R,2S)-1-{[(cyclopropylsulfonyl)amino]carbonyl}-2-vinylcyclopropyl)-7,20,23-trioxo-2,19-dioxa-8,21,24-triazatetracyclo[22.2.1.0^3,8.0^14,18]heptacosa-3,5-diene-25-carboxamide], which Ki is on record?
A: Its Ki is 0.1 to 0.5 nM.

Q: With C=C[C@@H]1C[C@]1(NC(=O)[C@@H]1C[C@@H]2CN1C(=O)[C@H](C1CCCC1)NC(=O)O[C@@H]1CCC[C@H]1CCCCCn1c(ccc(-c3ccccc3)c1=O)O2)C(=O)NS(=O)(=O)C1CC1 [(1R,14R,18R,22S,25S)-22-cyclopentyl-N-((1R,2S)-1-{[(cyclopropylsulfonyl)amino]carbonyl}-2-vinylcyclopropyl)-7,20,23-trioxo-6-phenyl-2,19-dioxa-8,21,24-triazatetracyclo[22.2.1.0^3,8.0^14,18]heptacosa-3,5-diene-25-carboxamide] as the compound, how does the Ki read?
A: The Ki was 0.1 to 0.5 nM.

Q: How did the Ki turn out when C=C[C@@H]1C[C@]1(NC(=O)[C@@H]1C[C@@H]2CN1C(=O)[C@H](C1CCCC1)NC(=O)O[C@@H]1CCC[C@H]1CCCCCn1c(nc3cc(Cl)ccc3c1=O)O2)C(=O)NS(=O)(=O)C1(C)CC1 [(1R,18R,22R,26S,29S)-7-chloro-26-cyclopentyl-N-[(1R,2S)-1-({[(1-methylcyclopropyl)sulfonyl]amino}carbonyl)-2-vinylcyclopropyl]-11,24,27-trioxo-2,23-dioxa-4,12,25,28-tetraazapentacyclo[26.2.1.0^3,12.0^5,10.0^18,22]hentriaconta-3,5,7,9-tetraene-29-carboxamide] was run?
A: The Ki was < 0.1 nM.

Q: C=C[C@@H]1C[C@]1(NC(=O)[C@@H]1C[C@@H]2CN1C(=O)[C@H](C1CCCC1)NC(=O)O[C@@H]1CCC[C@H]1CCCCCn1c(nc3cc(OC)ccc3c1=O)O2)C(=O)NS(=O)(=O)C1(C)CC1 [(1R,18R,22R,26S,29S)-26-cyclopentyl-7-methoxy-N-[(1R,2S)-1-({[(1-methylcyclopropyl)sulfonyl]amino}carbonyl)-2-vinylcyclopropyl]-11,24,27-trioxo-2,23-dioxa-4,12,25,28-tetraazapentacyclo[26.2.1.0^3,12.0^5,10.0^18,22]hentriaconta-3,5,7,9-tetraene-29-carboxamide] was tested. Which Ki did it give?
A: Its Ki is < 0.1 nM.

Q: Which Ki does the source give for CC[C@@H]1C[C@]1(NC(=O)[C@@H]1C[C@@H]2CN1C(=O)[C@H](C1CCCC1)NC(=O)O[C@@H]1C[C@H]1CCCCCn1c(cc3ccccc3c1=O)O2)C(=O)NS(=O)(=O)C1CC1 [(1aR,5S,8S,10R,23aR)-5-cyclopentyl-N-((1R,2R)-1-{[(cyclopropylsulfonyl)amino]carbonyl}-2-ethylcyclopropyl)-3,6,17-trioxo-1,1a,3,4,5,6,9,10,19,20,21,22,23,23a-tetradecahydro-8H,17H-7,10-methanocyclopropa[18,19][1,10,3,6,12]dioxatriazacyclononadecino[12,11-b]isoquinoline-8-carboxamide] here?
A: The Ki was 0.1 to 0.5 nM.

Q: For C=C[C@@H]1C[C@]1(NC(=O)[C@@H]1C[C@@H]2CN1C(=O)[C@H](C1CCCC1)NC(=O)O[C@@H]1C[C@H]1CCCCCn1c(cc3ccccc3c1=O)O2)C(=O)NS(=O)(=O)C1CC1 [(1aR,5S,8S,10R,23aR)-5-cyclopentyl-N-((1R,2S)-1-{[(cyclopropylsulfonyl)amino]carbonyl}-2-vinylcyclopropyl)-3,6,17-trioxo-1,1a,3,4,5,6,9,10,19,20,21,22,23,23a-tetradecahydro-8H,17H-7,10-methanocyclopropa[18,19][1,10,3,6,12]dioxatriazacyclononadecino[12,11-b]isoquinoline-8-carboxamide], which Ki is on record?
A: The Ki was < 0.1 nM.

Q: With CC[C@@H]1C[C@]1(NC(=O)[C@@H]1C[C@@H]2CN1C(=O)[C@H](C1CCCC1)NC(=O)O[C@H]1C[C@@H]1CCCCCn1c(cc3ccccc3c1=O)O2)C(=O)NS(=O)(=O)C1CC1 [(1aS,5S,8S,10R,23aS)-5-cyclopentyl-N-((1R,2R)-1-{[(cyclopropylsulfonyl)amino]carbonyl}-2-ethylcyclopropyl)-3,6,17-trioxo-1,1a,3,4,5,6,9,10,19,20,21,22,23,23a-tetradecahydro-8H,17H-7,10-methanocyclopropa[18,19][1,10,3,6,12]dioxatriazacyclononadecino[12,11-b]isoquinoline-8-carboxamide] as the compound, how does the Ki read?
A: Its Ki is 0.1 to 0.5 nM.

Q: With C=C[C@@H]1C[C@]1(NC(=O)[C@@H]1C[C@@H]2CN1C(=O)[C@H](C1CCCC1)NC(=O)O[C@H]1C[C@@H]1CCCCCn1c(cc3ccccc3c1=O)O2)C(=O)NS(=O)(=O)C1CC1 [(1aS,5S,8S,10R,23aS)-5-cyclopentyl-N-((1R,2S)-1-{[(cyclopropylsulfonyl)amino]carbonyl}-2-vinylcyclopropyl)-3,6,17-trioxo-1,1a,3,4,5,6,9,10,19,20,21,22,23,23a-tetradecahydro-8H,17H-7,10-methanocyclopropa[18,19][1,10,3,6,12]dioxatriazacyclononadecino[12,11-b]isoquinoline-8-carboxamide] as the compound, how does the Ki read?
A: Its Ki is 0.1 to 0.5 nM.

Q: CC[C@@H]1C[C@]1(NC(=O)[C@@H]1C[C@@H]2CN1C(=O)[C@H](C1CCCC1)NC(=O)O[C@@H]1CCC[C@H]1CC/C=C/Cn1c(nc3ccccc3c1=O)O2)C(=O)NS(=O)(=O)C1CC1 [(3aR,7S,10S,12R,22E,25aS)-7-cyclopentyl-N-((1R,2R)-1-{[(cyclopropylsulfonyl)amino]carbonyl}-2-ethylcyclopropyl)-5,8,19-trioxo-1,2,3,3a,5,6,7,8,11,12,21,24,25,25a-tetradecahydro-10H,19H-9,12-methanocyclopenta[18,19][1,10,3,6,12]dioxatriazacyclononadecino[11,12-b]quinazoline-10-carboxamide] was tested. Which Ki did it give?
A: Its Ki is 0.1 to 0.5 nM.
